Data from patent US20230295234A1, “ANTIMICROBIAL PEPTIDOMIMETICS” (SPEXIS AG, priority 2020, published 2023).
Bridge positions count the residues as written; N and C are the ends. Square brackets hold non-standard residues; d marks the D form. Peptide text beside a SMILES is read from it. Pro(4R-NH2) = N[C@H]1CN[C@H](C(=O)O)C1; Gly(N-2-aminoethyl) = NCCNCC(=O)O; Hyp = O=C(O)[C@@H]1C[C@@H](O)CN1; Gly(N(CH2)3NH2) = NCCCNCC(=O)O; Pen = CC(C)(S)[C@H](N)C(=O)O; dDab = NCC[C@@H](N)C(=O)O; Dab = NCC[C@H](N)C(=O)O; Nlys = NCCCCNCC(=O)O

Columns and labels:
[1] = tested on: human red blood cells (hRBC); experiment: Hemolysis of human red blood cells; assay type: cell-based; details: red cells of human, 1 h
Summary of the method: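 PBS-washed human red blood cells (20% v/v) were incubated with peptide at 200 μg/mL for 1 h at 37 °C with shaking. Supernatant OD was read at 540 nm after 8-fold dilution. Hemolysis is expressed as percent of the water control.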

[2] = tested on: Escherichia coli MCR-1 Af 45; details: MCR-1 Af 45
Summary of the method: (§1)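 Broth microdilution; cation-adjusted MHII; inoculum ~5×10^5 CFU/mL from 0.5 McFarland saline suspension; peptide two-fold serial dilutions; polysorbate 80 0.002% final; peptide stock 1 mg/mL in water.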

[3] = tested on: Escherichia coli ATCC 25922; details: ATCC 25922
Summary of the method: as §1

[4] = tested on: Klebsiella pneumoniae SSI3010; details: SSI3010
Summary of the method: as §1

Row | SMILES | Hemolysis at 0.2 g/L [1] | Escherichia coli MCR-1 Af 45 MIC [2] | Escherichia coli ATCC 25922 MIC [3] | Klebsiella pneumoniae SSI3010 MIC [4]
1 | CC[C@H](C)[C@H](NC(=O)[C@@H]1C[C@@H](N)CN1C(=O)[C@@H](NC(=O)[C@@H]1C[C@@H](O)CN1C(=O)CNCCCN)C(C)C)C(=O)N[C@H](C(=O)N[C@@H](Cc1ccc(O)cc1)C(=O)N[C@@H]1C(=O)N[C@@H](CC(N)=O)C(=O)N[C@@H](CCCNC(=N)N)C(=O)N[C@@H](CCN)C(=O)N[C@@H]([C@@H](C)O)C(=O)N[C@H](CCN)C(=O)N[C@@H](CCCCN)C(=O)N[C@H](C(=O)N[C@@H](Cc2ccc(O)cc2)C(=O)N[C@@H](CCCNC(=N)N)C(=O)N[C@@H](Cc2ccc(O)cc2)C(=O)O)CSSC1(C)C)[C@@H](C)O [Example 58, Norn-Hyp-Val-Pro((4R)NH2)-Ile-Thr-Tyr-Pen-Asn-Arg-Dab-Thr-^DDab-Lys-Cys-Tyr-Arg-Tyr] (H-[Gly(N(CH2)3NH2)][Hyp]V[Pro(4R-NH2)]ITY[Pen]NR[Dab]T[dDab]KCYRY-OH; disulfide 8-15) | 0% | 0.125 µg/mL | 0.25 µg/mL | 0.25 µg/mL
2 | CC[C@H](C)[C@H](NC(=O)[C@@H]1C[C@@H](O)CN1C(=O)[C@@H](NC(=O)[C@@H]1C[C@@H](N)CN1C(=O)CNCCCCN)C(C)C)C(=O)N[C@H](C(=O)N[C@@H](Cc1ccc(O)cc1)C(=O)N[C@@H]1C(=O)N[C@@H](CC(N)=O)C(=O)N[C@@H](CCCNC(=N)N)C(=O)N[C@@H](CCN)C(=O)N[C@@H]([C@@H](C)O)C(=O)N[C@H](CCN)C(=O)N[C@@H](CCCCN)C(=O)N[C@H](C(=O)N[C@@H](Cc2ccc(O)cc2)C(=O)N[C@@H](CCCNC(=N)N)C(=O)N[C@@H](Cc2ccc(O)cc2)C(=O)O)CSSC1(C)C)[C@@H](C)O [Example 59, Nlys-Pro((4R)NH2)-Val-Hyp-Ile-Thr-Tyr-Pen-Asn-Arg-Dab-Thr-^DDab-Lys-Cys-Tyr-Arg-Tyr] (H-[Nlys][Pro(4R-NH2)]V[Hyp]ITY[Pen]NR[Dab]T[dDab]KCYRY-OH; disulfide 8-15; N-terminus and C-terminus assumed) | 0% | 0.125 µg/mL | 0.25 µg/mL | 0.25 µg/mL
3 | CC[C@H](C)[C@H](NC(=O)[C@@H]1C[C@@H](O)CN1C(=O)[C@@H](NC(=O)CN(CCN)C(=O)CNCCCN)C(C)C)C(=O)N[C@H](C(=O)N[C@@H](Cc1ccc(O)cc1)C(=O)N[C@@H]1C(=O)N[C@@H](CC(N)=O)C(=O)N[C@@H](CCCNC(=N)N)C(=O)N[C@@H](CCN)C(=O)N[C@@H]([C@@H](C)O)C(=O)N[C@H](CCN)C(=O)N[C@@H](CCCCN)C(=O)N[C@H](C(=O)N[C@@H](Cc2ccc(O)cc2)C(=O)N[C@@H](CCCNC(=N)N)C(=O)N[C@@H](Cc2ccc(O)cc2)C(=O)O)CSSC1(C)C)[C@@H](C)O [Example 60, Norn-Ndab-Val-Hyp-Ile-Thr-Tyr-Pen-Asn-Arg-Dab-Thr-^DDab-Lys-Cys-Tyr-Arg-Tyr] (H-[Gly(N(CH2)3NH2)][Gly(N-2-aminoethyl)]V[Hyp]ITY[Pen]NR[Dab]T[dDab]KCYRY-OH; disulfide 8-15; N-terminus assumed) | 0% | 0.125 µg/mL | 0.25 µg/mL | 0.25 µg/mL
4 | CC[C@H](C)[C@H](NC(=O)[C@@H]1C[C@@H](O)CN1C(=O)[C@@H](NC(=O)CN(CCN)C(=O)CNCCCCN)C(C)C)C(=O)N[C@H](C(=O)N[C@@H](Cc1ccc(O)cc1)C(=O)N[C@@H]1C(=O)N[C@@H](CC(N)=O)C(=O)N[C@@H](CCCNC(=N)N)C(=O)N[C@@H](CCN)C(=O)N[C@@H]([C@@H](C)O)C(=O)N[C@H](CCN)C(=O)N[C@@H](CCCCN)C(=O)N[C@H](C(=O)N[C@@H](Cc2ccc(O)cc2)C(=O)N[C@@H](CCCNC(=N)N)C(=O)N[C@@H](Cc2ccc(O)cc2)C(=O)O)CSSC1(C)C)[C@@H](C)O [Example 61, Nlys-Ndab-Val-Hyp-Ile-Thr-Tyr-Pen-Asn-Arg-Dab-Thr-^DDab-Lys-Cys-Tyr-Arg-Tyr] (H-[Nlys][Gly(N-2-aminoethyl)]V[Hyp]ITY[Pen]NR[Dab]T[dDab]KCYRY-OH; disulfide 8-15) | 0% | 0.125 µg/mL | 0.25 µg/mL | 0.125 µg/mL
5 | CC[C@H](C)[C@H](NC(=O)CN(CCN)C(=O)[C@@H](NC(=O)CN(CCN)C(=O)[C@@H](N)CCCCN)C(C)C)C(=O)N[C@H](C(=O)N[C@@H](Cc1ccc(O)cc1)C(=O)N[C@@H]1C(=O)N[C@@H](CC(N)=O)C(=O)N[C@@H](CCCNC(=N)N)C(=O)N[C@@H](CCN)C(=O)N[C@@H]([C@@H](C)O)C(=O)N[C@H](CCN)C(=O)N[C@@H](CCCCN)C(=O)N[C@H](C(=O)N[C@@H](Cc2ccc(O)cc2)C(=O)N[C@@H](CCCNC(=N)N)C(=O)N[C@@H](Cc2ccc(O)cc2)C(=O)O)CSSC1(C)C)[C@@H](C)O [Example 62, Lys-Ndab-Val-Ndab-Ile-Thr-Tyr-Pen-Asn-Arg-Dab-Thr-^DDab-Lys-Cys-Tyr-Arg-Tyr] (H-K[Gly(N-2-aminoethyl)]V[Gly(N-2-aminoethyl)]ITY[Pen]NR[Dab]T[dDab]KCYRY-OH; disulfide 8-15) | 0% | 0.125 µg/mL | 0.25 µg/mL | 0.25 µg/mL
6 | CC[C@H](C)[C@H](NC(=O)[C@@H]1C[C@@H](O)CN1C(=O)[C@@H](NC(=O)[C@@H]1C[C@@H](O)CN1C(=O)[C@H](CCCCN)NC(=N)N)C(C)C)C(=O)N[C@H](C(=O)N[C@@H](Cc1ccc(O)cc1)C(=O)N[C@@H]1C(=O)N[C@@H](CC(N)=O)C(=O)N[C@@H](CCCNC(=N)N)C(=O)N[C@@H](CCN)C(=O)N[C@@H]([C@@H](C)O)C(=O)N[C@H](CCN)C(=O)N[C@@H](CCCCN)C(=O)N[C@H](C(=O)N[C@@H](CCN)C(=O)N[C@@H](CCCNC(=N)N)C(=O)N[C@@H](Cc2ccc(O)cc2)C(=O)O)CSSC1(C)C)[C@@H](C)O [Example 63, Gua-Lys-Hyp-Val-Hyp-Ile-Thr-Tyr-Pen-Asn-Arg-Dab-Thr-^DDab-Lys-Cys-Dab-Arg-Tyr] (HELM PEPTIDE1{[N=C(N)N[C@@H](CCCCN)C(=O)[*:2]].[Hyp].V.[Hyp].I.T.Y.[Pen].N.R.[Dab].T.[NCC[C@@H](N[*:1])C(=O)[*:2]].K.C.[Dab].R.Y}$PEPTIDE1,PEPTIDE1,8:R3-15:R3$$$V2.0) | 0% | 0.0625 µg/mL | 0.0625 µg/mL | 0.125 µg/mL
7 | CCCC[C@H](NC(=O)[C@H](CCCNC(=N)N)NC(=O)[C@H](CCC(N)=O)NC(=O)[C@@H]1CSSC[C@H](NC(=O)[C@H](Cc2ccc(O)cc2)NC(=O)[C@@H](NC(=O)[C@@H](NC(=O)[C@@H]2CCCN2C(=O)[C@@H](NC(=O)[C@@H]2CCCN2C(=O)[C@H](CCCCN)NC(=O)[C@@H](N)CCCCN)C(C)C)[C@@H](C)CC)[C@@H](C)CC)C(=O)N[C@@H](CC(N)=O)C(=O)N[C@@H](CCCNC(=N)N)C(=O)N[C@@H](CCN)C(=O)N[C@@H]([C@@H](C)O)C(=O)N[C@H](CCN)C(=O)N[C@@H](CCN)C(=O)N1)C(=O)O [Example 64] (HELM PEPTIDE1{K.K.P.V.P.I.I.Y.C.N.R.[Dab].T.[NCC[C@@H](N[*:1])C(=O)[*:2]].[Dab].C.Q.R.[Nle]}$PEPTIDE1,PEPTIDE1,9:R3-16:R3$$$V2.0) | 0% | 0.125 µg/mL | 0.0625 µg/mL | 0.25 µg/mL
8 | CCCC[C@H](NC(=O)[C@H](CCCNC(=N)N)NC(=O)[C@H](CCCNC(=N)N)NC(=O)[C@@H]1CSSC[C@H](NC(=O)[C@H](Cc2ccc(O)cc2)NC(=O)[C@@H](NC(=O)[C@@H](NC(=O)[C@@H]2CCCN2C(=O)[C@@H](NC(=O)[C@@H]2CCCN2C(=O)[C@H](CCCCN)NC(=O)[C@@H](N)CCCCN)C(C)C)[C@@H](C)CC)[C@@H](C)CC)C(=O)N[C@@H](CC(N)=O)C(=O)N[C@@H](CCCNC(=N)N)C(=O)N[C@@H](CCN)C(=O)N[C@@H]([C@@H](C)O)C(=O)N[C@H](CCN)C(=O)N[C@@H](CCN)C(=O)N1)C(=O)O [Example 65] (HELM PEPTIDE1{K.K.P.V.P.I.I.Y.C.N.R.[Dab].T.[NCC[C@@H](N[*:1])C(=O)[*:2]].[Dab].C.R.R.[Nle]}$PEPTIDE1,PEPTIDE1,9:R3-16:R3$$$V2.0) | 0% | 0.0625 µg/mL | ≤0.0625 µg/mL | 0.0625 µg/mL
9 | CCCC[C@H](NC(=O)[C@H](CCCNC(=N)N)NC(=O)[C@H](CCN)NC(=O)[C@@H]1CSSC[C@H](NC(=O)[C@H](Cc2ccc(O)cc2)NC(=O)[C@@H](NC(=O)[C@@H](NC(=O)[C@@H]2CCCN2C(=O)[C@@H](NC(=O)[C@@H]2CCCN2C(=O)[C@H](CCCCN)NC(=O)[C@@H](N)CCCCN)C(C)C)[C@@H](C)CC)[C@@H](C)CC)C(=O)N[C@@H](CC(N)=O)C(=O)N[C@@H](CCCNC(=N)N)C(=O)N[C@@H](CCN)C(=O)N[C@@H]([C@@H](C)O)C(=O)N[C@H](CCN)C(=O)N[C@@H](CCCCN)C(=O)N1)C(=O)O [Example 66] (HELM PEPTIDE1{K.K.P.V.P.I.I.Y.C.N.R.[Dab].T.[NCC[C@@H](N[*:1])C(=O)[*:2]].K.C.[Dab].R.[Nle]}$PEPTIDE1,PEPTIDE1,9:R3-16:R3$$$V2.0) | 0% | 0.0625 µg/mL | 0.03125 µg/mL | 0.125 µg/mL
